Results on 15 molecules are retold here after US7655629B2, “Peptides and their use for the treatment of HIV infections” (priority 2002, dated 2010).

One experiment relates to HIV-1 NL4-3 DTV. The note with it: read-out: IC50 DTV, P4-CCR5 cells, peptide 2 h before infection, readout three days after infection. The procedure, abridged: (§1)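 P4-CCR5 cells (CD4, CCR5, CXCR4, HIV-1 promoter-driven β-galactosidase) pretreated 2 h with peptide, then infected with virus containing 1 ng p24 antigen and incubated overnight. Cells washed and cultured without peptide; three days post-infection infectivity read by chemiluminescent β-galactosidase assay, in quintuplicate.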

For a further experiment, the system named is X4-tropic HIV-1 NL4-3. The note with it: for IC50: read-out: IC50 NL4-3, P4-CCR5 cells, HIV-1 NL4-3, peptide 2 h before infection, readout three days after infection. The method, boiled down:
as §1

Non-standard residues stand in square brackets, D forms with d. Residues, ends and D or L forms follow the SMILES beside them. Phe(4-F) = N[C@@H](Cc1ccc(F)cc1)C(=O)O; 1Nal = N[C@@H](Cc1cccc2ccccc12)C(=O)O; Bta = N[C@@H](Cc1csc2ccccc12)C(=O)O; 4Pal = N[C@@H](Cc1ccncc1)C(=O)O; Tic = O=C(O)[C@@H]1Cc2ccccc2CN1; 3Thi = N[C@@H](Cc1ccsc1)C(=O)O; Cha = N[C@@H](CC1CCCCC1)C(=O)O

Take `CC[C@H](C)[C@H](NC(=O)[C@@H]1CCCN1C(=O)[C@@H](NC(=O)[C@H](C)NC(=O)[C@H](CCC(=O)O)NC(=O)[C@@H](N)CC(C)C)[C@@H](C)CC)C(=O)N[C@@H](CO)C(=O)N[C@H](C(=O)N1CCC[C@H]1C(=O)N1CCC[C@@H]1C(=O)N[C@@H](CCC(=O)O)C(=O)N[C@H](C(=O)N[C@@H](C)C(=O)N[C@@H](Cc1ccccc1)C(=O)N[C@@H](CC(N)=O)C(=O)N[C@@H](CCCCN)C(=O)N1CCC[C@H]1C(=O)N[C@@H](Cc1ccccc1)C(=O)N[C@H](C(=O)N[C@@H](Cc1ccccc1)C(=O)O)C(C)C)C(C)C)[C@@H](C)CC` [VIR-229, LEAIPISIPpEVAFNKPFVF] (H-LEAIPISIP[dP]EVAFNKPFVF-OH): the IC50 was found to be 2260 nM in the experiment on HIV-1 NL4-3 DTV and 1280 nM in the experiment on X4-tropic HIV-1 NL4-3.

Take `CC[C@H](C)[C@H](NC(=O)[C@H](CC(=O)O)NC(=O)[C@H](CCC(=O)O)NC(=O)[C@@H](N)CC(C)C)C(=O)N1CCC[C@H]1C(=O)N[C@@H](CCSC)C(=O)N[C@@H](CO)C(=O)N[C@H](C(=O)N1CCC[C@H]1C(=O)N1CCC[C@@H]1C(=O)N[C@@H](CCC(=O)O)C(=O)N[C@H](C(=O)N[C@@H](C)C(=O)N[C@@H](Cc1ccccc1)C(=O)N[C@@H](CC(N)=O)C(=O)N[C@@H](CCCCN)C(=O)N1CCC[C@H]1C(=O)N[C@@H](Cc1ccccc1)C(=O)N[C@H](C(=O)N[C@@H](Cc1ccccc1)C(=O)O)C(C)C)C(C)C)[C@@H](C)CC` [VIR-252, LEDIPMSIPpEVAFNKPFVF] (H-LEDIPMSIP[dP]EVAFNKPFVF-OH): the values for the 50% inhibitory concentration (IC50) in the experiment with HIV-1 NL4-3 DTV and with X4-tropic HIV-1 NL4-3 were 1870 nM and 1750 nM, respectively.

As to `CC[C@H](C)[C@H](NC(=O)[C@H](CCCCN)NC(=O)[C@H](CCC(=O)O)NC(=O)[C@@H](N)CC(C)C)C(=O)N1CCC[C@H]1C(=O)N[C@@H](CCSC)C(=O)N[C@@H](CO)C(=O)N[C@H](C(=O)N1CCC[C@H]1C(=O)N1CCC[C@@H]1C(=O)N[C@@H](CCC(=O)O)C(=O)N[C@H](C(=O)N[C@@H](C)C(=O)N[C@@H](Cc1ccccc1)C(=O)N[C@@H](CC(N)=O)C(=O)N[C@@H](CCCCN)C(=O)N1CCC[C@H]1C(=O)N[C@@H](Cc1ccccc1)C(=O)N[C@H](C(=O)N[C@@H](Cc1ccccc1)C(=O)O)C(C)C)C(C)C)[C@@H](C)CC` [VIR-255, LEKIPMSIPpEVAFNKPFVF] (H-LEKIPMSIP[dP]EVAFNKPFVF-OH), the figures for the IC50 with HIV-1 NL4-3 DTV and with X4-tropic HIV-1 NL4-3 were 1230 nM and 650 nM, respectively.

As to `CC[C@H](C)[C@H](NC(=O)[C@H](C)NC(=O)[C@H](CCC(=O)O)NC(=O)[C@@H](N)CC(C)C)C(=O)N1CCC[C@H]1C(=O)N[C@@H](CCSC)C(=O)N[C@@H](CO)C(=O)N[C@H](C(=O)N1CCC[C@H]1C(=O)N1CCC[C@@H]1C(=O)N[C@@H](CCC(=O)O)C(=O)N[C@H](C(=O)N[C@@H](CC1CCCCC1)C(=O)N[C@@H](Cc1ccccc1)C(=O)N[C@@H](CC(N)=O)C(=O)N[C@@H](CCCCN)C(=O)N1CCC[C@H]1C(=O)N[C@@H](Cc1ccccc1)C(=O)N[C@H](C(=O)N[C@@H](Cc1ccccc1)C(=O)O)C(C)C)C(C)C)[C@@H](C)CC` [VIR-257, LEAIPMSIPpEV(cyclohexylalanine)FNKPFVF] (H-LEAIPMSIP[dP]EV[Cha]FNKPFVF-OH), the figures for the IC50 in the experiment on HIV-1 NL4-3 DTV and in the experiment on X4-tropic HIV-1 NL4-3 were 660 nM and 860 nM, respectively.

Take `CC[C@H](C)[C@H](NC(=O)[C@H](C)NC(=O)[C@H](CCC(=O)O)NC(=O)[C@@H](N)CC(C)C)C(=O)N1CCC[C@H]1C(=O)N[C@@H](CCSC)C(=O)N[C@@H](CO)C(=O)N[C@H](C(=O)N1CCC[C@H]1C(=O)N1CCC[C@@H]1C(=O)N[C@@H](CCC(=O)O)C(=O)N[C@@H](Cc1cccc2ccccc12)C(=O)N[C@@H](C)C(=O)N[C@@H](Cc1ccccc1)C(=O)N[C@@H](CC(N)=O)C(=O)N[C@@H](CCCCN)C(=O)N1CCC[C@H]1C(=O)N[C@@H](Cc1ccccc1)C(=O)N[C@H](C(=O)N[C@@H](Cc1ccccc1)C(=O)O)C(C)C)[C@@H](C)CC` [VIR-258, LEAIPMSIPpE(1-naphthylalanine)AFNKPFVF] (H-LEAIPMSIP[dP]E[1Nal]AFNKPFVF-OH): the IC50 is 620 nM in the experiment on HIV-1 NL4-3 DTV and 640 nM in the experiment on X4-tropic HIV-1 NL4-3.

`CC[C@H](C)[C@H](NC(=O)[C@H](C)NC(=O)[C@H](CCC(=O)O)NC(=O)[C@@H](N)CC(C)C)C(=O)N1CCC[C@H]1C(=O)N[C@@H](CCSC)C(=O)N[C@@H](CO)C(=O)N[C@H](C(=O)N1CCC[C@H]1C(=O)N1CCC[C@@H]1C(=O)N[C@@H](CCC(=O)O)C(=O)N[C@@H](Cc1ccc(F)cc1)C(=O)N[C@@H](C)C(=O)N[C@@H](Cc1ccccc1)C(=O)N[C@@H](CC(N)=O)C(=O)N[C@@H](CCCCN)C(=O)N1CCC[C@H]1C(=O)N[C@@H](Cc1ccccc1)C(=O)N[C@H](C(=O)N[C@@H](Cc1ccccc1)C(=O)O)C(C)C)[C@@H](C)CC` [VIR-259, LEAIPMSIPpE(p-fluorophenylalanine)AFNKPFVF] (H-LEAIPMSIP[dP]E[Phe(4-F)]AFNKPFVF-OH): the IC50 in the experiment on HIV-1 NL4-3 DTV was 1030 nM; with X4-tropic HIV-1 NL4-3, 860 nM.

Regarding `CC[C@H](C)[C@H](NC(=O)[C@H](C)NC(=O)[C@H](CCC(=O)O)NC(=O)[C@@H](N)CC(C)C)C(=O)N1CCC[C@H]1C(=O)N[C@@H](CCSC)C(=O)N[C@@H](CO)C(=O)N[C@H](C(=O)N1CCC[C@H]1C(=O)N1CCC[C@@H]1C(=O)N[C@@H](CCC(=O)O)C(=O)N[C@H](C(=O)N[C@@H](Cc1ccncc1)C(=O)N[C@@H](Cc1ccccc1)C(=O)N[C@@H](CC(N)=O)C(=O)N[C@@H](CCCCN)C(=O)N1CCC[C@H]1C(=O)N[C@@H](Cc1ccccc1)C(=O)N[C@H](C(=O)N[C@@H](Cc1ccccc1)C(=O)O)C(C)C)C(C)C)[C@@H](C)CC` [VIR-260, LEAIPMSIPpEV(4-pyridylalanine)FNKPFVF] (H-LEAIPMSIP[dP]EV[4Pal]FNKPFVF-OH), the IC50 worked out at 2380 nM in the experiment on HIV-1 NL4-3 DTV and 2150 nM in the experiment on X4-tropic HIV-1 NL4-3.

In the case of `CC[C@H](C)[C@H](NC(=O)[C@H](C)NC(=O)[C@H](CCC(=O)O)NC(=O)[C@@H](N)CC(C)C)C(=O)N1CCC[C@H]1C(=O)N[C@@H](CCSC)C(=O)N[C@@H](CO)C(=O)N[C@H](C(=O)N1CCC[C@H]1C(=O)N1CCC[C@@H]1C(=O)N[C@@H](CCC(=O)O)C(=O)N[C@H](C(=O)N1Cc2ccccc2C[C@H]1C(=O)N[C@@H](Cc1ccccc1)C(=O)N[C@@H](CC(N)=O)C(=O)N[C@@H](CCCCN)C(=O)N1CCC[C@H]1C(=O)N[C@@H](Cc1ccccc1)C(=O)N[C@H](C(=O)N[C@@H](Cc1ccccc1)C(=O)O)C(C)C)C(C)C)[C@@H](C)CC` [VIR-263, LEAIPMSIPpEV(L-Tic)FNKPFVF] (H-LEAIPMSIP[dP]EV[Tic]FNKPFVF-OH), the IC50 in the experiment on HIV-1 NL4-3 DTV was determined as 330 nM; with X4-tropic HIV-1 NL4-3, 770 nM.

As for `CC[C@H](C)[C@H](NC(=O)[C@H](C)NC(=O)[C@H](CCC(=O)O)NC(=O)[C@@H](N)CC(C)C)C(=O)N1CCC[C@H]1C(=O)N[C@@H](CCSC)C(=O)N[C@@H](CO)C(=O)N[C@H](C(=O)N1CCC[C@H]1C(=O)N1CCC[C@@H]1C(=O)N[C@@H](CCC(=O)O)C(=O)N[C@H](C(=O)N[C@@H](Cc1csc2ccccc12)C(=O)N[C@@H](Cc1ccccc1)C(=O)N[C@@H](CC(N)=O)C(=O)N[C@@H](CCCCN)C(=O)N1CCC[C@H]1C(=O)N[C@@H](Cc1ccccc1)C(=O)N[C@H](C(=O)N[C@@H](Cc1ccccc1)C(=O)O)C(C)C)C(C)C)[C@@H](C)CC` [VIR-264, LEAIPMSIPpEV(3-benzothienylalanine)FNKPFVF] (H-LEAIPMSIP[dP]EV[Bta]FNKPFVF-OH), the results for the IC50 with HIV-1 NL4-3 DTV and in the experiment with X4-tropic HIV-1 NL4-3 were 700 nM and 590 nM, respectively.

As to `CC[C@H](C)[C@H](NC(=O)[C@H](C)NC(=O)[C@H](CCC(=O)O)NC(=O)[C@@H](N)CC(C)C)C(=O)N1CCC[C@H]1C(=O)N[C@@H](CCSC)C(=O)N[C@@H](CO)C(=O)N[C@H](C(=O)N1CCC[C@H]1C(=O)N1CCC[C@@H]1C(=O)N[C@@H](CCC(=O)O)C(=O)N[C@H](C(=O)N[C@@H](Cc1ccsc1)C(=O)N[C@@H](Cc1ccccc1)C(=O)N[C@@H](CC(N)=O)C(=O)N[C@@H](CCCCN)C(=O)N1CCC[C@H]1C(=O)N[C@@H](Cc1ccccc1)C(=O)N[C@H](C(=O)N[C@@H](Cc1ccccc1)C(=O)O)C(C)C)C(C)C)[C@@H](C)CC` [VIR-265, LEAIPMSIPpEV(3-thienylalanine)FNKPFVF] (H-LEAIPMSIP[dP]EV[3Thi]FNKPFVF-OH), the IC50 in the experiment with HIV-1 NL4-3 DTV came out at 2210 nM; with X4-tropic HIV-1 NL4-3, 1290 nM.

Take `CC[C@H](C)[C@H](NC(=O)[C@H](C)NC(=O)[C@H](CCC(=O)O)NC(=O)[C@@H](N)CC(C)C)C(=O)N1CCC[C@H]1C(=O)N[C@@H](CCSC)C(=O)N[C@@H](CO)C(=O)N[C@H](C(=O)N1CCC[C@H]1C(=O)N1CCC[C@@H]1C(=O)N[C@@H](CCC(=O)O)C(=O)N[C@H](C(=O)N[C@@H](Cc1c[nH]c2ccccc12)C(=O)N[C@@H](Cc1ccccc1)C(=O)N[C@@H](CC(N)=O)C(=O)N[C@@H](CCCCN)C(=O)N1CCC[C@H]1C(=O)N[C@@H](Cc1ccccc1)C(=O)N[C@H](C(=O)N[C@@H](Cc1ccccc1)C(=O)O)C(C)C)C(C)C)[C@@H](C)CC` [VIR-266, LEAIPMSIPpEVWFNKPFVF] (H-LEAIPMSIP[dP]EVWFNKPFVF-OH): the IC50 in the experiment with HIV-1 NL4-3 DTV stood at 830 nM; in the experiment with X4-tropic HIV-1 NL4-3 it was 590 nM.

`CC[C@H](C)[C@H](NC(=O)[C@H](C)NC(=O)[C@H](CCC(=O)O)NC(=O)[C@@H](N)CC(C)C)C(=O)N1CCC[C@H]1C(=O)N[C@@H](CCSC)C(=O)N[C@@H](CO)C(=O)N[C@H](C(=O)N1CCC[C@H]1C(=O)N1CCC[C@@H]1C(=O)N[C@@H](CCC(=O)O)C(=O)N[C@H](C(=O)N[C@@H](C)C(=O)N[C@@H](Cc1ccccc1)C(=O)N[C@@H](CC(N)=O)C(=O)N[C@@H](CCCCN)C(=O)N1Cc2ccccc2C[C@H]1C(=O)N[C@@H](Cc1ccccc1)C(=O)N[C@H](C(=O)N[C@@H](Cc1ccccc1)C(=O)O)C(C)C)C(C)C)[C@@H](C)CC` [VIR-268, LEAIPMSIPpEVAFNK(L-Tic)FVF] (H-LEAIPMSIP[dP]EVAFNK[Tic]FVF-OH): the IC50 worked out at 1480 nM in the experiment on HIV-1 NL4-3 DTV and 1730 nM in the experiment on X4-tropic HIV-1 NL4-3.

In the case of H-LEAIPMSIPPEFAFNKDFVF-OH [VIR-243], the IC50 with HIV-1 NL4-3 DTV amounted to 1980 nM; in the experiment on X4-tropic HIV-1 NL4-3 it was 2160 nM.

As for H-LEAIPMSIPPEIAFNKPFVF-OH [VIR-184], the results for the IC50 in the experiment with HIV-1 NL4-3 DTV and in the experiment on X4-tropic HIV-1 NL4-3 were 5390 nM and 1990 nM, respectively. Also, the “increase in anti-HIV activity in comparison to VIRIP” value with X4-tropic HIV-1 NL4-3 (from IC50 against two HIV-1 strains (NL4-3, DTV)) is 4 fold.

For the molecule H-LEAIPMSIPPELAFAKPFVF-OH [VIR-182], the IC50 with HIV-1 NL4-3 DTV was determined as 2970 nM; in the experiment with X4-tropic HIV-1 NL4-3, 2250 nM.
